Measurements: ChEMBL document CHEMBL1201862, “PubChem BioAssay data set” (2004)
Activity calls are given as the source filed them.

Legend:
[1] = biological target: T1, RNA-binding protein pos-1 (Caenorhabditis elegans, UniProt G5EF15); test: disruptors of C. elegans POS-1 RNA interaction – biochemical, fluorescence polarization, dose response (AID 1964);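 further: purified POS-1 fused to maltose binding protein made in E. coli; potency of compounds blocking POS-1 binding to fluorescent RNA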
T1 sequence (G5EF15 whole entry): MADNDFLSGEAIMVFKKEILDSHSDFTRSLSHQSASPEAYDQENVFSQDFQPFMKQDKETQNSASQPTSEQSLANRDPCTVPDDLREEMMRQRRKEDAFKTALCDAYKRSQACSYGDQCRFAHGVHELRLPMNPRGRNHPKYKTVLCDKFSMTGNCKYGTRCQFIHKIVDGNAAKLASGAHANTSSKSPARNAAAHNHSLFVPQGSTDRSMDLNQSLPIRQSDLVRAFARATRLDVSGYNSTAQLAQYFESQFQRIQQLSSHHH

[2] = biological target: T2, Zinc finger protein mex-5 (Caenorhabditis elegans, UniProt Q9XUB2); test: potency of MEX-5 RNA-binding blockers – biochemical, C. elegans, fluorescence polarization, dose response (AID 1960)
T2 sequence (Q9XUB2 whole entry): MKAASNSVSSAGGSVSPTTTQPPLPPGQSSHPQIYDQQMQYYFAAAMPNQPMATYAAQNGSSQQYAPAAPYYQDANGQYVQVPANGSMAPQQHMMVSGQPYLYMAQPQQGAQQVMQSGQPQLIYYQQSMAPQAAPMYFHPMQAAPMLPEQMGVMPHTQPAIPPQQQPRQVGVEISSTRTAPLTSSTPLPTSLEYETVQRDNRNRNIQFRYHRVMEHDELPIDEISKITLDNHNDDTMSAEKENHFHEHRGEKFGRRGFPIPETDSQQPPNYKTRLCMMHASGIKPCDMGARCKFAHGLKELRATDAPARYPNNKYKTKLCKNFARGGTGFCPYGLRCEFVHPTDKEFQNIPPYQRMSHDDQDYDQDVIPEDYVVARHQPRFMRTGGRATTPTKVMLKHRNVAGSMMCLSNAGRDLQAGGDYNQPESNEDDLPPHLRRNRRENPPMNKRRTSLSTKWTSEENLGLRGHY

Large T antigen = Large T antigen (Simian virus 40, UniProt P03070); format: functional, Betapolyomavirus macacae;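 further: Confirmatory-stage PubChem screen for compounds that inhibit SV40 T antigen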
[3] = biological target: T3, Induced myeloid leukemia cell differentiation protein Mcl-1 (Homo sapiens, UniProt Q07820); test: blockers of MCL1 binding to BIM peptide – biochemical, fluorescence polarization, BIM-BH3 peptide, 1536-well, dose response (AID 2217)
Bcl-2-like protein 1 = Bcl-2-like protein 1 (Homo sapiens, UniProt Q07817); test: blockers of BCLXL peptide binding – biochemical, fluorescence polarization, 1536-well, selectivity assay for MCL1 inhibitor project, dose response (AID 2218)
[4] = biological target: T4, Low molecular weight phosphotyrosine protein phosphatase (Homo sapiens, UniProt P24666); format: functional; details: read-out: IC50_Mean;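 further: Dose-response confirmation assay measuring inhibition of LMPTP enzyme activity by fluorescence intensity read-out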
T4 sequence (P24666 whole entry): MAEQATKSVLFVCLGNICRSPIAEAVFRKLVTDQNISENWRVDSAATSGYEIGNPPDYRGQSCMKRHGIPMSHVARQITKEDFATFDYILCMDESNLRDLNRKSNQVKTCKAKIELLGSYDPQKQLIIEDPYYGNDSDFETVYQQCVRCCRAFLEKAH

[5] = biological target: T5, Neuropeptide Y receptor type 1 (Homo sapiens, UniProt P25929); format: functional;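 further: HEK293 cells with a CNG channel challenged with NPY then isoproterenol; potency as antagonist that reverses NPY suppression of cAMP signal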
T5 sequence (P25929 whole entry): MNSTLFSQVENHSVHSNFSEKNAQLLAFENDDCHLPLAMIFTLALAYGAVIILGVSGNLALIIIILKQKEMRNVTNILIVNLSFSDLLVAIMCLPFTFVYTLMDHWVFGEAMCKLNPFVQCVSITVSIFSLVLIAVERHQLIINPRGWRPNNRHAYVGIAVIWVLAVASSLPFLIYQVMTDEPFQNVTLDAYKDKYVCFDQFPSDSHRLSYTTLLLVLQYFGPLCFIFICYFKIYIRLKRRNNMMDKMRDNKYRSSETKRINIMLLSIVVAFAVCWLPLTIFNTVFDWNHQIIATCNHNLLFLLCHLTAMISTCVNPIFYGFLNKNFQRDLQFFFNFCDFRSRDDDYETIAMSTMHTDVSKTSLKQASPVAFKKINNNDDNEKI

[6] = Trypanosoma cruzi growth suppression in host cells – NIH3T3 host cells, beta-gal luminescence, confirmation (AID 2044); format: functional, cell-based;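 further: intracellular parasites grown in NIH/3T3 mouse fibroblasts as host cells; luminescent beta-galactosidase reporter signal from transgenic T. cruzi replicating inside host cells; inhibitors lower the luminescence signal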
[7] = biological target: T6, Neuropeptide Y receptor type 2 (Homo sapiens, UniProt P49146); format: functional, cell-based;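 further: HEK293 cells expressing the receptor and a CNG channel; stimulus was NPY near EC95 followed by isoproterenol to raise cAMP; antagonist potency measured as restoring cAMP signal that NPY suppresses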
T6 sequence (P49146 whole entry): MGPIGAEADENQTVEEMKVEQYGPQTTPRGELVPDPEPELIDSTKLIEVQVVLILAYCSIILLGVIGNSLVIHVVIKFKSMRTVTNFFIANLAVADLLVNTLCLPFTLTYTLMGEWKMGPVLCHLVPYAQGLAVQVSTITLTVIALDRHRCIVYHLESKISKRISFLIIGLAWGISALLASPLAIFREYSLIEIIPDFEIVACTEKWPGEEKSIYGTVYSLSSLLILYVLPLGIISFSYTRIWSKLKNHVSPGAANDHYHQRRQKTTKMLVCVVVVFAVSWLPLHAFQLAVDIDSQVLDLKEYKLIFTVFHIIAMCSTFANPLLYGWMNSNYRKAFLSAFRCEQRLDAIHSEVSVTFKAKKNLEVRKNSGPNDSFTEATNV

[8] = NIH3T3 cell viability loss – ATP luminescence, mouse fibroblasts, counter-screen, dose response (AID 2010); format: functional, cell-based;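 further: cells exposed to compound for about 90 hours before reading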
Aminopeptidase N = biological target: T7, Aminopeptidase N (Plasmodium falciparum FcB1/Columbia, UniProt O96935); test: malaria alanyl aminopeptidase activity blockers – biochemical, fluorogenic H-Leu-NHMec substrate, 1536-well (AID 1445); parameters: species or system Plasmodium falciparum 3D7, 3D7
T7 sequence (O96935 whole entry): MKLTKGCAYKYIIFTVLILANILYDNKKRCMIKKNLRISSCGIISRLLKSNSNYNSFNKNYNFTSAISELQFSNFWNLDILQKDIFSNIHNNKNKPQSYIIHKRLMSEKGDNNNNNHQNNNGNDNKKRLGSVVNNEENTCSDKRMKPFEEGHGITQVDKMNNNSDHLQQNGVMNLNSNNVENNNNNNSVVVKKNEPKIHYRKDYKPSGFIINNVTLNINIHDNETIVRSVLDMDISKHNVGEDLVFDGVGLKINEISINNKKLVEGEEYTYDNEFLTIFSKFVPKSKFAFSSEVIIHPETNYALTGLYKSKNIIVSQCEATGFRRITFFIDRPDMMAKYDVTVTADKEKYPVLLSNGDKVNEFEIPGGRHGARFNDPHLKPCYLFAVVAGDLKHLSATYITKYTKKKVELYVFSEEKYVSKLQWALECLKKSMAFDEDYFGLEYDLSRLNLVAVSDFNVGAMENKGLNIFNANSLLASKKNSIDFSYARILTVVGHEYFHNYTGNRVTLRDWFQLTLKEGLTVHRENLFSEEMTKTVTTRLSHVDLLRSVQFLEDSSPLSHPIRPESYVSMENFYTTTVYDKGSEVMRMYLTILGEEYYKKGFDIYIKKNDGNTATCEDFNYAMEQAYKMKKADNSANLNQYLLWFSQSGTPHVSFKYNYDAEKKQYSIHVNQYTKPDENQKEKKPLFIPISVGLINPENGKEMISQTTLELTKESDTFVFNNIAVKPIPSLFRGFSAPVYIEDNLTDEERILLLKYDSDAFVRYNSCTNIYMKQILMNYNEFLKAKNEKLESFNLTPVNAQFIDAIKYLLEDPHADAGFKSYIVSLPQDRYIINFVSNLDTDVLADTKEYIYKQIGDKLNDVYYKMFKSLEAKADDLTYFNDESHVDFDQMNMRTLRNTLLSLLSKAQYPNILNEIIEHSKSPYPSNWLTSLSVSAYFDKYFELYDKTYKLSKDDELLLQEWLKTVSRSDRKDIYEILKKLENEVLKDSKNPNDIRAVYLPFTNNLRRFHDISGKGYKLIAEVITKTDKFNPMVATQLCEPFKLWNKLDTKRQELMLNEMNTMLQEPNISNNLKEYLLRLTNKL

Bcl-2-like protein 10 = biological target: T8, Bcl-2-like protein 10 (Homo sapiens, UniProt Q9HD36); test: Bcl-B/TR3 peptide binding disruption – biochemical, fluorescence polarization, FITC-TR3 peptide, selectivity assay for Bfl-1 inhibitor project, primary screen (AID 748);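 further: fluorescence polarization from a fluorescein-labelled TR3 peptide binding purified Bcl-B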
T8 sequence (Q9HD36 whole entry): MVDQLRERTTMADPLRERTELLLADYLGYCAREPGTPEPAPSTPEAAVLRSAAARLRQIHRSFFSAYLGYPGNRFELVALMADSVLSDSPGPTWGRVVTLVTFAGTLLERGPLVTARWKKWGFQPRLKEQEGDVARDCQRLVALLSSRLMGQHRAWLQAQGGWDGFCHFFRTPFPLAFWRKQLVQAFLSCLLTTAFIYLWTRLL

Estrogen receptor beta = Estrogen receptor beta (Homo sapiens, UniProt Q92731); test: blockers of SRC-3 recruitment to ERβ – biochemical, ELISA, streptavidin-HRP readout, orthogonal assay, confirmation (AID 1060)
[9] = biological target: T3, Induced myeloid leukemia cell differentiation protein Mcl-1; format: functional
Genome polyprotein = Genome polyprotein (dengue virus type 2, UniProt P29990); test: flavivirus cap methylation enzyme inhibition – biochemical, confirmation dose response, primary screen (AID 588689); format: functional
Protein Tat = biological target: T9, Protein Tat (Human immunodeficiency virus type 1 group M subtype B (isolate HXB2)(HIV-1), UniProt P04608); format: functional;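 further: tat binding to TAR RNA read out by fluorescence polarization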
T9 sequence (P04608 whole entry): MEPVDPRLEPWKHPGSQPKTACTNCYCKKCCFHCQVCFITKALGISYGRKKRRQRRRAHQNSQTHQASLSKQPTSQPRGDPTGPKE

[10] = Luminescence Cell-Based Dose Response to Identify Activators of 5'UTR Stem-Loop Driven Prion Protein mRNA Translation in H4-C Neuroglioblastoma Cells. [Related pubchem assays: 1829 (Project Summary), 1814 (Primary HTS)]; format: functional
[11] = Luminescence Cell-Based Dose Confirmation HTS to Identify Activators of 5'UTR Stem-Loop Driven Alpha-Synuclein mRNA Translation in H4 Neuroglioblastoma Cells. [Related pubchem assays: 1829 (Project Summary), 1814 (Primary HTS)]; format: functional
[12] = Luminescence Cell-Based Dose Response HTS to Identify Activators of Luciferase Translation or Activity in H4 […] Cells. [Related pubchem assays: 1829 (Project Summary), 1814 (Primary HTS)]; format: functional
H4 = test: Luminescence Cell-Based Dose Response HTS to Identify Activators of 5'UTR Stem-Loop Driven Prion Protein mRNA Translation in H4 Neuroglioblastoma Cells. [Related pubchem assays: 1829 (Project Summary), 1814 (Primary HTS)]; format: functional; details: Homo sapiens
[13] = Luminescence Cell-Based Dose Response to Identify Activators of Luciferase Translation or Activity in H4-C Neuroglioblastoma Cells. [Related pubchem assays: 1829 (Project Summary), 1814 (Primary HTS)]; format: functional
[14] = Luminescence Cell-Based Dose Confirmation to Identify Activators of 5'UTR Stem-Loop Driven Alpha-Synuclein mRNA Translation in H4 Neuroglioblastoma Cells. [Related pubchem assays: 1829 (Project Summary), 1814 (Primary HTS)]; format: functional
BJ [15] = test: BJ-TERT fibroblast viability loss – cell-based, RAS-independent, luminescence, dose response (AID 1933); format: functional; details: Homo sapiens
BJ [16] = test: cells; format: functional, cell-based; details: Homo sapiens
[17] = viability of PTEN-deleted HCT116 cells – cell-based, HCT116 PTEN knockout, dose response (AID 1047); format: functional;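 further: HCT116 colon tumor cells with PTEN knocked out; cells exposed to compound for 60 hours before readout; potency for loss of cell viability measured by luminescence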
[18] = viability of HCT116 lacking mutant beta-catenin – cell-based, human colon tumor, dose response (AID 1045); format: functional;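 further: HCT116 colon tumor cells with beta catenin knocked out; cells exposed to compound for 60 hours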
BJ [19] = test: BJ-TERT-LT-ST fibroblast viability loss – cell-based, RAS-independent, luminescence, dose response (AID 1935); format: functional; details: Homo sapiens;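 further: BJ fibroblasts immortalized with TERT plus LT and ST oncogenes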
[20] = DRD fibroblast viability loss – cell-based, non-viral oncogenic, luminescence, dose response (AID 1934); format: functional; details: Homo sapiens
BJ [21] = test: growth inhibition of engineered Ras-driven BJ cells – cell-based, alamar blue fluorescence, cherrypicked samples, dose response (AID 2631); format: functional; details: Homo sapiens;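 further: confirmatory dose-response assay in RAS-dependent BJ fibroblasts engineered with TERT, LT and ST, with cytotoxicity read by fluorescence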

T3 sequence (Q07820 whole entry): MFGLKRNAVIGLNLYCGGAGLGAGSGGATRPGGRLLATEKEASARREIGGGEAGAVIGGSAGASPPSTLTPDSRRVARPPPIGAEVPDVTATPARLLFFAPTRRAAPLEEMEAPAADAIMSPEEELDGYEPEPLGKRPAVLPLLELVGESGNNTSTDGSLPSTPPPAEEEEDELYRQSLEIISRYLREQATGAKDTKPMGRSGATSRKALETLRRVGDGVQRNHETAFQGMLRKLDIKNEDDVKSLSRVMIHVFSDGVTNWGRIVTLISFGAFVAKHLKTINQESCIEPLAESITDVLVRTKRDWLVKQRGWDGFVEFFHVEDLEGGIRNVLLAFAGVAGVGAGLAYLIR
Large T antigen, sequence (P03070 whole entry): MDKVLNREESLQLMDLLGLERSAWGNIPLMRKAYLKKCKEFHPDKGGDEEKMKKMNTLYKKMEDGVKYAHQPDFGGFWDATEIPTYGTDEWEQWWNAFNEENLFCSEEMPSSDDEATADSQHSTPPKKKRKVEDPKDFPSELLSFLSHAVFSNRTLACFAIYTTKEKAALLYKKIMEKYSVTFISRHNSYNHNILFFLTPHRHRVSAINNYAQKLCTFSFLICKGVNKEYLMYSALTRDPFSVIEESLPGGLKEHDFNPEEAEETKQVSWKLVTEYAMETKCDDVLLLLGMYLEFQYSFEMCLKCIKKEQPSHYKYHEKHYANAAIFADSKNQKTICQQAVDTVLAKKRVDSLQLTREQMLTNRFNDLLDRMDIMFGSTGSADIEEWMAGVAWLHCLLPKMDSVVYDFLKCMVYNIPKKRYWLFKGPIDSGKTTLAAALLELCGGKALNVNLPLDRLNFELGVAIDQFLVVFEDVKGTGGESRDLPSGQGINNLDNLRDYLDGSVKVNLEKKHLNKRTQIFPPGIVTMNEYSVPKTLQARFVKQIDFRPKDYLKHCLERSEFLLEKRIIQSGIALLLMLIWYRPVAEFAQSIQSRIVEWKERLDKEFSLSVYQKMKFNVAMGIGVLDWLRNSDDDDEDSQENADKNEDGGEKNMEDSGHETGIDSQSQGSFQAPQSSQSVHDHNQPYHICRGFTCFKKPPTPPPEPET
Bcl-2-like protein 1, sequence (Q07817 whole entry): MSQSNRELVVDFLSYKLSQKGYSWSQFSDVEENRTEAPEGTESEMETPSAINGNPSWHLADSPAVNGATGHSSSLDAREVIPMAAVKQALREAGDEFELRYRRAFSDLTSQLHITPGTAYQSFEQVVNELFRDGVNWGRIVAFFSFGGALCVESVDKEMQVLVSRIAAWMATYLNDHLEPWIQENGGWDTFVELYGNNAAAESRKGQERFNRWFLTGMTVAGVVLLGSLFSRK
Genome polyprotein, sequence (P29990 2492-3391 limits assumed): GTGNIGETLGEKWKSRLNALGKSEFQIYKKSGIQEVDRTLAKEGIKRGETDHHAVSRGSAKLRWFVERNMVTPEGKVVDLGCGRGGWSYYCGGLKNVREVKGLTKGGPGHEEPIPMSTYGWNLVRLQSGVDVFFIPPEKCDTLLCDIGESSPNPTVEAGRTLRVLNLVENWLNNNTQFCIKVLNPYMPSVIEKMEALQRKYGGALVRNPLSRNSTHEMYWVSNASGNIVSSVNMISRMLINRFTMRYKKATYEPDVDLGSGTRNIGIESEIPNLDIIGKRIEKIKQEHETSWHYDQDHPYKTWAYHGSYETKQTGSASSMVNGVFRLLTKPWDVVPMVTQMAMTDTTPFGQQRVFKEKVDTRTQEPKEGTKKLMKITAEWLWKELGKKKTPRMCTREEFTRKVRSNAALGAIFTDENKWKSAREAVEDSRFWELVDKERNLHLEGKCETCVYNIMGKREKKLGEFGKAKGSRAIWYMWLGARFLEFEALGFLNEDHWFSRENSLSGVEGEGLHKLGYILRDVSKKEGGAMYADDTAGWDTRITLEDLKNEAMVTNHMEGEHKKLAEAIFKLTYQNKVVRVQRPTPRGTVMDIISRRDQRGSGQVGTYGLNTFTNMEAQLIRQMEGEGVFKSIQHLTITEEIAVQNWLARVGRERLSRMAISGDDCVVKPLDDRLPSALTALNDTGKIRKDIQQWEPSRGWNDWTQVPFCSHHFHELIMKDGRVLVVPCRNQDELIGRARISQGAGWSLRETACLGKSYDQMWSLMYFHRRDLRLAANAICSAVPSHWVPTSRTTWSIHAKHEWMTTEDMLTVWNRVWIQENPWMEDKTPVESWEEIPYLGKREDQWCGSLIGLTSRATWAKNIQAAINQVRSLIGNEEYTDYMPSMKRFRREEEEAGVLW
Estrogen receptor beta, sequence (Q92731 whole entry): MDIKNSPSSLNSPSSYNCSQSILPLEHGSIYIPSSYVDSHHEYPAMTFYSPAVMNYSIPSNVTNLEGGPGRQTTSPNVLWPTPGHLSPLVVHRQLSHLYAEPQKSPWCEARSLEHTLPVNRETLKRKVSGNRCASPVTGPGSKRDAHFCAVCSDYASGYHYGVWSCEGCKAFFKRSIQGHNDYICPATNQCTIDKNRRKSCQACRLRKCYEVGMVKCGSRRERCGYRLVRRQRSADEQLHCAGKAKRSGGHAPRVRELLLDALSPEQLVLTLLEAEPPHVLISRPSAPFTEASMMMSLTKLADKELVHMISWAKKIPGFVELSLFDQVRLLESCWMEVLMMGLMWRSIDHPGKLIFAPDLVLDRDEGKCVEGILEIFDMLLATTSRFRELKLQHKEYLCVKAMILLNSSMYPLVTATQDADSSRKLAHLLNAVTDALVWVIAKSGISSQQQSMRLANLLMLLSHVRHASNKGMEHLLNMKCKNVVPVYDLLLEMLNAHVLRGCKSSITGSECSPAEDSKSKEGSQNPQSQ

Cc1ccc(-c2cc(-c3ccco3)c(C#N)c(=O)[nH]2)cc1
EC50 [1]: 26.1 µM (active)
EC50 [2]: 8.36 µM (inconclusive)
IC50 (Large T antigen): 64.5 µM (active)
IC50 [3]: > 12.1 µM (not active)
IC50 (Bcl-2-like protein 1): > 109 µM (not active)
IC50 [4]: 49.2 µM (inactive)

CN(C)CCCSc1nc(-c2ccccc2)nc2c1CCC2
IC50 [5]: 7.33 µM (active)
EC50 [6]: < 0.1 µM (active)
IC50 [7]: 18.2 µM (not active)
EC50 [8]: > 60 µM (not active)
EC50 (cells): 0.12 µM (active)

O=C(CSc1nnc(-c2ccco2)c(-c2ccco2)n1)Nc1ccccc1
IC50 (Aminopeptidase N): 97.7 µM (active)
IC50 (Bcl-2-like protein 10): 15.3 µM (active)
IC50 (Estrogen receptor beta): < 0.023 µM (not active)
IC50 [9]: 3.11 µM (active)
IC50 (Genome polyprotein): > 100 µM (active)
IC50 (Protein Tat): 5.16 µM (inconclusive)

Cc1ccc(-c2cc(NC(=O)c3ccccc3)on2)cc1
EC50 [10]: 0.632 µM (active)
EC50 [11]: < 0.1 µM (active)
EC50 [12]: 0.137 µM (active)
EC50 (H4): 9.75 µM (active)
EC50 [13]: 0.334 µM (active)
EC50 [14]: 0.463 µM (active)

O=C(/C=C/c1cccc2ccccc12)c1ccncc1
IC50 [5]: 5.47 µM (active)
EC50 (BJ [15]): 10.2 µM (inconclusive)
EC50 (BJ [16]): > 150 µM (inconclusive)
IC50 [7]: 4.95 µM (active)
EC50 [17]: 8.54 µM (active)
EC50 [18]: 5.26 µM (active)
EC50 (BJ [19]): > 75 µM (inconclusive)
EC50 [20]: 16.5 µM (active)
EC50 (BJ [21]): > 133 µM (inactive)

Clc1ccccc1/C=N/Nc1cc(N2CCOCC2)ncn1
EC50 [10]: 1.05 µM (active)
EC50 [11]: < 0.1 µM (active)
EC50 (H4): 9.34 µM (active)
EC50 [13]: 0.394 µM (active)
EC50 [14]: 0.564 µM (active)
